Results reported in article PMC11106739, “Discovery and Derivatization of Tridecaptin Antibiotics with Altered Host Specificity and Enhanced Bioactivity” (ACS Chemical Biology, 2024).
Values after ≈ are worked out from the molar mass of the structure shown. Where a SMILES comes first, the peptide text is derived from it. [ ]: non-standard residue; d: D form. The star is where a group is joined. d(aIle) = CC[C@H](C)[C@@H](N)C(=O)O; dDab = NCC[C@@H](N)C(=O)O; Octanoyl = CCCCCCCC(=O)*; Dab = NCC[C@H](N)C(=O)O

Legend:
A. baumannii HUMC1 = assay type: cell-based, Acinetobacter baumannii; conditions: HUMC1, 20 h
Method in brief: (§1)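 Values are visually read MICs from CLSI-style microdilution, final compound concentrations spanning 0.06 to 64 μg/mL in cation-adjusted medium, incubated 20 h at 35 °C.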

A. baumannii ATCC 17978 = assay type: cell-based, Acinetobacter baumannii; conditions: ATCC 17978, 20 h
Method in brief: as §1

A. baumannii IHMA 777621 = assay type: cell-based, Acinetobacter baumannii; conditions: IHMA 777621, 20 h
Method in brief: as §1

E. faecium IHMA 890472 = assay type: cell-based, Enterococcus faecium; conditions: IHMA 890472, 20 h
Method in brief: as §1

E. faecium ATCC 51559 = assay type: cell-based, Enterococcus faecium; conditions: ATCC 51559, 20 h
Method in brief: as §1

E. coli 1220120 = assay type: cell-based, Escherichia coli; conditions: 1220120, 20 h
Method in brief: as §1

E. coli ATCC 25922 [1] = assay type: cell-based, Escherichia coli; conditions: ATCC 25922, 20 h
Method in brief: as §1

E. coli 1214245 = assay type: cell-based, Escherichia coli; conditions: 1214245, 20 h
Method in brief: as §1

[2] = system: Gram-positive lipid II / S. aureus USA300 (MRSA); assay: Lipid II antagonization assay; assay type: cell-based, Staphylococcus aureus; conditions: compound at 8x MIC, 5-fold molar excess of Gram-positive lipid II, MHB with 0.002% polysorbate-80, 37 °C, 18 h, resazurin, triplicates
Protocol: Laboratory Institute (CLSI) guidelines. Gram-positive lipid II, containing lysine at position 3 of the pentapeptide, was prepared by total chemical synthesis.1,2 Lipid II in 1 : 1 chloroform : methanol (v/v) was added to a polypropylene 96-well plate (5-fold molar excess compared to test antibiotics) and the organic solvent was allowed to evaporate. Oct-TriA5 and vancomycin in MHB (50 µL, 16xMIC) were added to the wells with the 5-fold molar excess of pure Gram-positive lipid II in triplicates and to the control wells without lipid II. Single colony of S. aureus USA300 (MRSA) from a fresh blood agar plate was suspended in TSB and grown to an OD600 of 0.5. The bacterial culture then was diluted in MHB with 0.002% polysorbate-80 to reach 10^6 CFU/mL and 50 µL were mixed with test compounds to achieve the final concentration of 8xMIC for all tested compounds. The plate was incubated at 37°C for 18 h with constant shaking (600 rpm) and subsequently inspected for visible bacterial growth. To visualize the viability of the indicator strain, resazurin sodium salt solution (Merck, Dorset, UK) was added to the cultures to achieve the final concentration of 0.0015% (w/v) and incubated at RT for 1 h.
Figure S4. HPLC trace showing the reinjection of purified Oct-TriD (3). The peptide eluted as a single peak at 17.263 min using the HPLC method A.
Figure S5. […]

K. pneumoniae ATCC 13883 = assay type: cell-based, Klebsiella pneumoniae; conditions: ATCC 13883, 20 h
Method in brief: as §1

K. pneumoniae 1228586 = assay type: cell-based, Klebsiella pneumoniae; conditions: 1228586, 20 h
Method in brief: as §1

K. pneumoniae 1227947 = assay type: cell-based, Klebsiella pneumoniae; conditions: 1227947, 20 h
Method in brief: as §1

S. aureus ATCC 29213 [3] = assay type: cell-based, Staphylococcus aureus; conditions: ATCC 29213, 20 h
Method in brief: as §1

S. aureus UAMS-1625 = assay type: cell-based, Staphylococcus aureus; conditions: S. aureus UAMS-1625 (BV18); CLSI broth dilution, cation-adjusted Mueller Hinton broth, 20 h, 35 °C, read visually
Method in brief: as §1

S. aureus 1126387 = assay type: cell-based, Staphylococcus aureus; conditions: 1126387, 20 h
Method in brief: as §1

P. aeruginosa PAO1 = assay type: cell-based, Pseudomonas aeruginosa; conditions: PAO1, 20 h
Method in brief: as §1

P. aeruginosa 1226072 = assay type: cell-based, Pseudomonas aeruginosa; conditions: 1226072, 20 h
Method in brief: as §1

P. aeruginosa 1218019 = assay type: cell-based, Pseudomonas aeruginosa; conditions: 1218019, 20 h
Method in brief: as §1

ATCC 25922 = assay type: cell-based, Enterococcus faecalis; conditions: ATCC 25922, 20 h
Method in brief: as §1

E. faecalis ATCC 29212 = assay type: cell-based, Enterococcus faecalis; conditions: ATCC 29212, 20 h
Method in brief: as §1

S. aureus USA300 (MRSA) = assay type: cell-based, Staphylococcus aureus; conditions: USA300, 18 h
[4] = system: Gram-negative ESKAPE pathogens; assay type: cell-based; conditions: 20 h
Protocol: All minimum inhibitory concentrations (MICs) were determined according to the Clinical and Standards Laboratory Institute (CLSI) guidelines. In brief, agar plates were inoculated from glycerol stocks and incubated overnight at 35 °C. Peptide DMSO stocks were dispensed into 96-well round-bottom plates using a TECAN D300e dispenser. Colistin sulfate (Sigma-Aldrich) was dissolved in water and serially diluted in a cation-adjusted Mueller Hinton broth (10 μL per well). Final concentrations of the test compounds were 0.06 to 64 μg/mL. Inocula were prepared by direct colony suspension in NaCl at 0.5 MacFarland, which was further diluted 200-fold in cation-adjusted Mueller Hinton broth for a target inoculum of 2 × 10^5 colony forming units (CFUs)/mL. 100 μL portion of the prepared inoculum was added to each well of the prepared plates containing the test compounds. Plates were sealed with parafilm and incubated for 20 h at 35 °C. Images of all plates were recorded, and MIC was assessed visually.

S. aureus ATCC 29213 [5] = assay: LIVE/DEAD staining (SYTO 9 / propidium iodide); assay type: cell-based, Staphylococcus aureus; conditions: S. aureus ATCC 29213, 1 × MIC, 15 min, microscopy
Protocol: (§2) This assay was performed according to a previously described procedure.[55],[56] Briefly, overnight cultures of E. coli ATCC 25922 and S. aureus ATCC 29213 were diluted to an OD600 of 0.2 in MHB and mixed with 1 × MIC of Oct-TriA1, Oct-TriA5, and Oct-TriD. Nisin and polymyxin B were used as positive controls at a concentration of 2-fold MIC. At the same time, green fluorescent nucleic acid stain SYTO 9 (excitation, 450–490 nm; emission, 500–550 nm) and red fluorescent nucleic acid stain propidium iodide (excitation, 574–599 nm; emission, 612–682 nm) (LIVE/DEAD Baclight Bacterial Viability Kit, Invitrogen) were added to the above cell suspensions. After mixing and incubating for 15 min in the dark at RT, cells were briefly sedimented via centrifugation and resuspended in fresh MHB. Then, the cell suspensions were loaded on 1.5% agarose pads and analyzed by a Zeiss Imager M2 microscope. Confocal images were obtained at 4 random locations for each sample and visualized using FIJI version 1.51H.[57]

E. coli ATCC 25922 [6] = assay: LIVE/DEAD staining (SYTO 9 / propidium iodide); assay type: cell-based, Escherichia coli; conditions: E. coli ATCC 25922, tridecaptins at 1 × MIC, polymyxin 4 μg/mL (2 × MIC), 15 min, microscopy
Protocol: as §2

CCCCCCCC(=O)N[C@@H](C(=O)N[C@H](CCN)C(=O)NCC(=O)N[C@H](CO)C(=O)N[C@H](Cc1c[nH]c2ccccc12)C(=O)N[C@@H](CO)C(=O)N[C@@H](CCN)C(=O)N[C@H](CCN)C(=O)N[C@@H](Cc1c[nH]c2ccccc12)C(=O)N[C@@H](CCC(=O)O)C(=O)N[C@H](C(=O)N[C@@H](C(=O)N[C@@H](C)C(=O)O)[C@@H](C)CC)C(C)C)C(C)C [Oct-TriA5] (Octanoyl-[dV][dDab]G[dS][dW]S[Dab][dDab]WEV[d(aIle)]A-OH)
MIC (A. baumannii HUMC1): 8 µg/mL (≈ 5.13 µM) | MIC (A. baumannii ATCC 17978): 4 µg/mL (≈ 2.56 µM) | MIC (A. baumannii IHMA 777621): 4 µg/mL (≈ 2.56 µM) | MIC (E. faecium IHMA 890472): 8 µg/mL (≈ 5.13 µM) | MIC (E. faecium ATCC 51559): 8 µg/mL (≈ 5.13 µM) | MIC (E. coli 1220120): 4 µg/mL (≈ 2.56 µM) | MIC (E. coli ATCC 25922 [1]): 2 µg/mL (≈ 1.28 µM) | MIC (E. coli 1214245): 4 µg/mL (≈ 2.56 µM) | growth of S. aureus USA300 (MRSA) after addition of lipid II [2]: not inhibited | MIC (K. pneumoniae ATCC 13883): 4 µg/mL (≈ 2.56 µM) | MIC (K. pneumoniae 1228586): 4 µg/mL (≈ 2.56 µM) | MIC (K. pneumoniae 1227947): 4 µg/mL (≈ 2.56 µM) | MIC (S. aureus ATCC 29213 [3]): 8 µg/mL (≈ 5.13 µM) | MIC (S. aureus UAMS-1625): 8 µg/mL (≈ 5.13 µM) | MIC (S. aureus 1126387): 8 µg/mL (≈ 5.13 µM) | MIC (P. aeruginosa PAO1): 16 µg/mL (≈ 10.3 µM) | MIC (P. aeruginosa 1226072): 8 µg/mL (≈ 5.13 µM) | MIC (P. aeruginosa 1218019): 4 µg/mL (≈ 2.56 µM) | MIC (ATCC 25922): 8 µg/mL (≈ 5.13 µM) | MIC (E. faecalis ATCC 29212): 8 µg/mL (≈ 5.13 µM) | MIC (S. aureus USA300 (MRSA)): 8 µg/mL (≈ 5.13 µM) | MICs, range over Gram-negative pathogens [4]: 2 to 16 µg/mL | LIVE/DEAD staining, membrane integrity of S. aureus cells (S. aureus ATCC 29213 [5]): had lysed

polymyxin B
LIVE/DEAD staining, membrane integrity of E. coli cells (E. coli ATCC 25922 [6]): death of half of the E. coli cells
